Results published in patent EP0877740B1, “THIOL DERIVATIVES WITH METALLOPEPTIDASE INHIBITORY ACTIVITY” (ZAMBON GROUP S.p.A., priority 1995, dated 1997).
Read-outs that look alike come from different tables or passages of the source.

Molecular target: T1, ACE (Rattus norvegicus, UniProt P47820)
T1 construct: After the removal of the lungs from SHR, the lung tissue was homogenized; from tissue; host or cells: lung homogenate of spontaneously hypertensive rats (SHR)
T1 sequence (P47820 36-1313): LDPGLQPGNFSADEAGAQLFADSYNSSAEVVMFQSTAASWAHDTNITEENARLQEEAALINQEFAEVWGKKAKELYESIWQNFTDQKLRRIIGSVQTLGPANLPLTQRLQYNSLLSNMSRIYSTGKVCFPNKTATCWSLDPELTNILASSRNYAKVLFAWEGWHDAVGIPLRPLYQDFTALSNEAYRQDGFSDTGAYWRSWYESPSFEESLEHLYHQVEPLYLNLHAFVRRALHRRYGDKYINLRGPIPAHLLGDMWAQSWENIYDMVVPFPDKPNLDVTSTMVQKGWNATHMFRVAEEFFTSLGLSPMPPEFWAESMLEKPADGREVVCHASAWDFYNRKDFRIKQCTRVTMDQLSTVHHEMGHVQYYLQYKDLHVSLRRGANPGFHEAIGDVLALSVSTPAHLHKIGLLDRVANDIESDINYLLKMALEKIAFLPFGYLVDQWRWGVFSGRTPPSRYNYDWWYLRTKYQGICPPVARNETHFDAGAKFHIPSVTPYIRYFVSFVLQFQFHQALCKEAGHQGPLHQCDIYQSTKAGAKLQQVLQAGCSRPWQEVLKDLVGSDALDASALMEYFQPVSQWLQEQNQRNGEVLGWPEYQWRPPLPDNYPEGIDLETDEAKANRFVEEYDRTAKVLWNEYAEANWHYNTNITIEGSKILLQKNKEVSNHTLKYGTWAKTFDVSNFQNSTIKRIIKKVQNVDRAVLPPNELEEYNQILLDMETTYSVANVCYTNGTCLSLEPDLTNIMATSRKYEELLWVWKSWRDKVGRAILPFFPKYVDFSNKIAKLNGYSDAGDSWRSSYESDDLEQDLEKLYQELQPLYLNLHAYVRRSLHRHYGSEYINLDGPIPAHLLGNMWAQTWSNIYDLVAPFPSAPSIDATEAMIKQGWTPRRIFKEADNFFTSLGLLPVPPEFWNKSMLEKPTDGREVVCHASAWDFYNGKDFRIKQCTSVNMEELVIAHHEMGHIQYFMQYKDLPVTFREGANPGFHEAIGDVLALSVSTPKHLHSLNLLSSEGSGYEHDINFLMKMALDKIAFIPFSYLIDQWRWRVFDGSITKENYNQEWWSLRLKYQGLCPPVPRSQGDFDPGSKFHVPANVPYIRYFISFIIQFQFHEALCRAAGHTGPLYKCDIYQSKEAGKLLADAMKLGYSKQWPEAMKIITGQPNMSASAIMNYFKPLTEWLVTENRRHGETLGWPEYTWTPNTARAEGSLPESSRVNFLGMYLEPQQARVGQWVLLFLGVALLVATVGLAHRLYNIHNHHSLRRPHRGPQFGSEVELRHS
Test: Ex vivo ACE-inhibitory activity in lung homogenates of treated SHR (radiometric, [3H]Hyp-Gly-Gly)
Set-up: species or system spontaneously hypertensive rats (SHR)
Conditions: SHR lungs; for inhibition at 30 µmol/kg: oral 30 µmoles/kg
Description: The ex-vivo ACE/NEP-inhibitory activity, in particular, was determined by evaluating the enzymatic activity in tissue homogenates (lung and kidney for ACE and NEP activity, respectively) from spontaneously hypertensive rats (SHR) treated with the tested compounds by intravenous or oral route.
The ex vivo ACE-inhibitory activity was evaluated by using a radiometric assay method, as reported in the literature by J. W. Ryan et al. in Biochem. J. (1977), 167, 501-504.
The inhibitory activity of the compounds of formula I was evaluated in lungs of spontaneously hypertensive rats (SHR), 5 minutes after i.v. injection (0.6 and 21 µmoles/kg) and 30 minutes, 60 minutes and 4 hours after oral administration (30 µmoles/kg) of the tested compounds.
After the removal of the lungs from SHR, the lung tissue was homogenized and incubated for 2 hours at 37°C in the presence of [^3H]Hyp-Gly-Gly, as a substrate.
The reaction was stopped by adding hydrochloric acid.
The released radiolabelled hyppuric acid was extracted with ethyl acetate and counted by liquid scintillation spectrometry, according to conventional methods.
The ACE-inhibitory activity of the tested compounds was expressed as percentage of ACE-inhibition in SHR lungs.

O=C(N[C@@H](Cc1ccc(-c2nccs2)cc1)C(=O)O)[C@@H](CS)Cc1ccccc1 [Compound 16, N-[(2S)-3-mercapto-2-phenylmethylpropionyl]-4-(2-thiazolyl)-L-phenylalanine]
inhibition at 30 µmol/kg (30 minutes after administration, read-out: ACE-inhibition (lungs) 30 minutes): 60% | inhibition at 30 µmol/kg (60 minutes after administration, read-out: ACE-inhibition (lungs) 60 minutes): 36% | inhibition at 30 µmol/kg (4 hours after administration, read-out: ACE-inhibition (lungs) 4 hours): 45% | inhibition at 0.6 µmol/kg (iv, i.v. 0.6 µmoles/kg, 5 minutes after injection): 15% | inhibition at 21 µmol/kg (iv, i.v. 21 µmoles/kg, 5 minutes after injection): 72%
